Measured values published in patent US20250127689A1, “METHOD OF STIMULATING DENTIN FORMATION WITH HYDROXY-SUBSTITUTED AZOBENZENE MATERIALS” (The Regents of the University of Colorado, a body corporate, priority 2022, published 2025).

Columns and labels:
[1] = system: exposed dental pulp of maxillary first molar; test: Pulp exposure (class I cavity) in maxillary first molar, H&E histology of sections four weeks after treatment; assay type: in vivo, C57BL/6J mice; conditions: mice
Procedure: (§1) In order to test this hypothesis, a class I cavity extending into the dentin and almost to the pulp was prepared on the occlusal surface of the maxillary first molar after anesthesia in five to six week old C57BL/6J mice. The cavity was prepared using a 0.3-0.5 millimeter diameter carbide bur. An endodontic hand file with a tip diameter of 0.06-0.10 millimeter was used to create a mechanical break in the thin dentin overlying the dental pulp, thereby creating a cavity that included exposed dentin and exposed pulp.
(§2) For the control group of mice, after hemostasis, a one-step, dual-cure, self-etching bonding agent (SCOTCHBOND™ Universal Adhesive; 3M ESPE, St. Paul, Minnesota, USA) was applied to exposed dentin according to the manufacturer's instructions and cured for 20-40 seconds using a dental curing light operated at 420-480 nanometers and 1200-2000 milliwatts/centimeter^2. ProRoot™ MTA (Mineral Trioxide Aggregate) root canal repair material (Dentsply Sirona, Tulsa Dental Specialties, Johnson City, Tennessee, USA) was prepared according to manufacturer's instructions by mixing powder and liquid components in equal proportions to form a dough. The dough was packed over the exposed pulp according to manufacturer's instructions. The cavity was then sealed with FILTEK™ Supreme Ultra Universal Restorative (3M ESPE, St. Paul, Minnesota, USA), which was applied to the cured adhesive and the root canal repair material, then cured for 20-40 seconds using a dental curing light operated at 420-480 nanometers and 1200-2000 milliwatts/centimeter^2.
For the test group of mice, after hemostasis, a one-step, dual-cure, self-etching bonding agent (SCOTCHBOND™ Universal Adhesive; 3M ESPE, St. Paul, Minnesota, USA) was applied to exposed dentin according to the manufacturer's instructions and cured for 20-40 seconds using a dental curing light operated at 420-480 nanometers and 1200-2000 milliwatts/centimeter^2. Prior to being applied, the AHA solution was divided into two parts of equal volume to mix in the photoinitiators and the redox (self-cure) initiator components. […]

[2] = system: exposed dental pulp of maxillary first molar; test: Pulp exposure (class I cavity) in maxillary first molar, microCT of maxilla six weeks after treatment; assay type: in vivo, C57BL/6J mice; conditions: mice, six weeks after dental procedure; longitudinal section, cured restorative removed before imaging
Procedure: as §1
as §2, with “The cavity was then sealed with FILTEK™ Supreme Ultra Universal Restorative (3M ESPE, St. Paul, Minnesota, USA), which was applied to the cured adhesive and the root canal repair material, then cured for 20-40 seconds using a dental curing light operated at 420-480 nanometers and 1200-2000 milliwatts/centimeter^2.” left out

For `C=CC(=O)Oc1ccccc1N=Nc1ccccc1O` [AHA, 2-Acryloyloxy-2′-hydroxy-azobenzene], the “appearance of gingiva around the site of application (inflammation, dysplasia)” value [1] was “healthy without any signs of inflammation or dysplasia”, the “formation of dentinal bridge at the site of pulp exposure (H&E stained sections)” value ([1]; 2.5 to 12.5 micrograms AHA per restoration applied to exposed pulp, light-cured under FILTEK restorative) was “closed by formation of a dentinal bridge generated by reparative dentin formation” and the “state of dental pulp by microscopy (vitality, inflammation, dysplastic changes)” value ([1]; H&E sections) was “vital pulp without any evidence of chronic or acute inflammation or dysplastic changes”. For the same compound, the “formation of a calcified dentinal bridge at the pulp exposure site (microCT)” value [2] was “pulp exposure site closed by a calcified dentinal bridge”.
